# Reference: US20130266636A1, “METHODS FOR BLOCKING CELL PROLIFERATION AND TREATING DISEASES AND CONDITIONS RESPONSIVE TO CELL GROWTH INHIBITION” (THE REGENTS OF THE UNIVERSITY OF CALIFORNIA, priority 2010, published 2013)
# “Also recorded” adds a separate entry of the source.
# Experiments:
# [1] = system: human lung (A549) carcinoma cell line; test: Cell viability assay in A549 cells; assay type: cell-based; details: for cell viability / potency relative to KG5 (cell viability EC50s): A549; for EC50: A549 lung cancer cells
# [2] = system: human breast (T47D) carcinoma cell line; test: Cell viability assay in T47D cells; assay type: cell-based; details: for cell viability / potency relative to KG5 (cell viability EC50s): T47D; for EC50: T47D breast cancer cells
# [3] = system: human breast (MDA-MB-231) carcinoma cell line; test: Cell viability assay in MDA-MB-231 cells; assay type: cell-based; details: for cell viability / potency relative to KG5 (cell viability EC50s): MDA-MB-231; for EC50: MDA-MB-231 breast cancer cell viability assays
# A549 cells = test: Cell proliferation assay in A549 cells; assay type: cell-based, human
# XPA-1 cells = test: Cell cycle analysis, bright field and confocal microscopy of XPA-1 cells; assay type: cell-based, human; details: XPA-1 cells, 20 hours
# Description: FIG. 38. […] FIG. 38(a) Bright field images (scale bar, 20 μm), cell cycle analysis and confocal microscopy images (scale bar, 10 μm, laminB in red and DNA in blue) of XPA-1 cells treated for 20 hours with the allosteric RAF inhibitor KG5, the ATP-competitive inhibitor Sorafenib, the MEK inhibitor PD0325901, the control compound KG1 at 5 μM or paclitaxel at 200 nM. Cells were harvested after 20 hours and the cell cycle stage was determined by flow cytometry and confocal microscopy. White arrows indicate cells arrested at pro-metaphase. Scale bars, 10 μm. FIG. 38(b) Representative confocal microscopy images of untreated XPA-1 tumor cells undergoing mitosis (left image) and XPA-1 cell arrested with KG5 at pro-metaphase (right image). Cells were stained with α-tubulin in red and DNA in blue. Scale bar, 10 μm. FIG. 38(c) XPA-1 cells transfected with a vector control or active MEK were treated with 1 μM KG5 for 20 hours or left untreated and the G2/M population was quantified by flow cytometry. Error bars represent s.d. (n=3); * two tailed p value=0.00063 using a Mann Whitney U test. FIG. 38(d) Immunoblot analysis of XPA-1 cells untreated or treated with 1 μM KG5 for 18 hours. Data are representative of four independent experiments. […] Error bars represent s.d. (n=3); * two tailed p value=0.010 using a Mann Whitney U test. Inset, Immunoblot analysis of HCT-116 cells untreated or treated with 1 μM KG5 for 18 hours.
# FIG. 39. […] FIG. 39 graphically illustrates cell cycle analysis of XPA-1 cells treated with the allosteric RAF inhibitor KG5, the microtubule stabilizer paclitaxel, or the ATP-competitive RAF inhibitors sorafenib, L-779450, GW 5074, and ZM-336372. Cells were harvested after 6, 18, 24, 48 and 72 hours and the percentages of cells in G2/M and SubG1 were determined by flow cytometry. Data are representative of three independent experiments.
# Cell cycle analysis was performed by flow cytometry following propidium iodide staining. Briefly, cells were harvested, fixed with ice cold methanol, treated for 45 min with 10 μg/ml of RNase and resuspended in PBS containing 10 μg/ml of PI, and analyzed by flow cytometry. Cell cycle analysis was performed in cells treated for 18 hours with the allosteric RAF inhibitor KG5, the ATP-competitive RAF inhibitors: sorafenib, L-779450, GW5074, and ZM-336372, the MEK inhibitor (PD0325901) at […] concentration or paclitaxel at 100 nM.
# CRAF = CRAF (Homo sapiens, UniProt P04049); test: CRAF localization to the mitotic spindle, confocal microscopy of XPA-1 cells; assay type: cell-based; design: total CRAF and total MEK of lysates from XPA-1 cells treated with PD0325901, Sorafenib, L-779450, PLX4720, KG5 or KG1; endogenous in cells; host or cells: XPA-1
# CRAF, sequence (P04049 whole entry): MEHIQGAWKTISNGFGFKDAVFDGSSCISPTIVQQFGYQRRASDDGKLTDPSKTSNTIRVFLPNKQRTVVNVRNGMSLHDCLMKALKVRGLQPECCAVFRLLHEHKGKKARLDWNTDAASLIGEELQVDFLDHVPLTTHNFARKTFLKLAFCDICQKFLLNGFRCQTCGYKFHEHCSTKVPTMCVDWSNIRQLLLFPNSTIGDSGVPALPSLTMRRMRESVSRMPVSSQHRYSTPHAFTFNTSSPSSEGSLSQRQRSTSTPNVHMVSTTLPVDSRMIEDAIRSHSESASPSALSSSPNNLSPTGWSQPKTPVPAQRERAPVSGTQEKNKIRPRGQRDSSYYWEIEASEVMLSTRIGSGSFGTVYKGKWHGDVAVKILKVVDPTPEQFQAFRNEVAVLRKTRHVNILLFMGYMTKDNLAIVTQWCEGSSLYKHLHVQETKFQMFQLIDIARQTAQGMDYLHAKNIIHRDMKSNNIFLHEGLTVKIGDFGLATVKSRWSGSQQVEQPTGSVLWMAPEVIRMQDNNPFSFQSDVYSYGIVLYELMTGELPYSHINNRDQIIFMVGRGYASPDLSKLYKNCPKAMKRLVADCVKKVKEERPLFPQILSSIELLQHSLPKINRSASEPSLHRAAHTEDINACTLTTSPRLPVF
# Excerpt: FIG. 35. […] Data are representative of three independent experiments. FIG. 35 (b) Confocal microscopy images of human pancreatic XPA-1 and glioblastoma U251 cells during mitosis, stained for phospho-5338 CRAF (in green), α-tubulin (in red) and DNA (TOPRO-3™ in blue). Scale bar, 10 μm. White arrows indicate localization of phospho-S338 CRAF at the mitotic spindle. FIG. 35 (c) Immunoblot analysis of γ-tubulin immunoprecipitates from human colon carcinoma HCT-116 cells asynchronized and synchronized at pro-metaphase. Data are representative of three independent experiments. FIG. 35(d) Immunohistochemical staining of phospho-S338 CRAF in tumor biopsies from breast cancer patients. Scale bar, 10 μm. FIG. 35(e) Confocal microscopy images of XPA-1 cells treated with KG5, sorafenib, ZM336372, L779450 or paclitaxel and stained for CRAF (in green), γ-tubulin (in red) and DNA (TOPRO-3™ in blue). Scale bar, 10 μm. White arrows indicate localization of CRAF at the spindle pole. White circle indicates the absence of CRAF at the spindle pole.
# Cells attached to cover-slips were fixed with cold methanol and permeabilized in PBS containing 0.1% triton for two minutes and blocked for 60 minutes, at room temperature with 2% BSA in PBS. Cells were stained with antibodies to CRAF (Abcam), phospho-serine 338 CRAF (SantaCruz), phospho-serine 338 CRAF (Thermo Scientific), a tubulin (Calbiochem), γ tubulin (Abcam), laminB (SantaCruz), Plk1 (Abcam), phospho-T210 Plk1 (Abcam), or phospho-T288 Aurora A (cell signaling). All primary antibodies were used at 1:100 dilution, for two hours at room temperature. After washing several times with PBS, cells were stained for two hours at room temperature, with secondary antibody specific for mouse, rabbit or goat (Invitrogen), as appropriate, diluted 1:300 and co-incubated with the DNA dye TOPRO-3™ (1:500) (Invitrogen). Samples were mounted in VECTASHIELD™ hard-set mounting media (Vector Laboratories) and imaged on a Nikon ECLIPSE C1™ confocal microscope with a 1.4 NA 60× oil-immersion lens, using minimum pinhole (30 μm). Images were captured using EZ-C1-3.50 imaging software.
Compound,potency relative to KG5 (cell viability EC50s) [1],EC50 [1],potency relative to KG5 (cell viability EC50s) [2],EC50 [2],potency relative to KG5 (cell viability EC50s) [3],EC50 [3],cell viability [1],cell viability [2],cell viability [3],cell proliferation (A549 cells),arrest at pro-metaphase (confocal microscopy) (XPA-1 cells),CRAF localization to the mitotic spindle (CRAF)
"CSc1nc(N)cc(Oc2ccc(-c3nnc(Nc4cccc5c4CCCC5)[nH]3)cc2)n1 [H3-21, 2-(methylsulfanyl)-6-{4-[5-(5,6,7,8-tetrahydronaphthalen-1-ylamino)-4H-1,2,4-triazol-3-yl]phenoxy}pyrimidin-4-amine]",more potent than KG5,approach picomolar (pM) EC50s,more potent than KG5,approach picomolar (pM) EC50s,more potent than KG5,approach picomolar (pM) EC50s,decrease cell viability,decrease cell viability,decrease cell viability,,,
CCCS(=O)(=O)Nc1ccc(F)c(C(=O)c2c[nH]c3ncc(-c4ccc(Cl)cc4)cc23)c1F [PLX4032],,,,,,,,,,induce proliferation,,
CNC(=O)c1cc(Oc2ccc(NC(=O)Nc3ccc(Cl)c(C(F)(F)F)c3)cc2)ccn1 [Sorafenib],,,,,,,,,,induce proliferation,does not arrest cells at pro-metaphase,does not prevent CRAF localization to the mitotic spindle or midbodies
CC(=O)O[C@H]1C(=O)[C@@]2(C)[C@H]([C@H](OC(=O)c3ccccc3)[C@]3(O)C[C@H](OC(=O)[C@H](O)[C@@H](NC(=O)c4ccccc4)c4ccccc4)C(C)=C1C3(C)C)[C@]1(OC(C)=O)CO[C@@H]1C[C@@H]2O [paclitaxel],,,,,,,,,,,arrests cells at pro-metaphase,does not affect CRAF localization to the mitotic spindle; also recorded: CRAF remained localized to the mitotic spindle

# More lines, main results first:
potency relative to KG5 (cell viability EC50s) [1],EC50 [1],potency relative to KG5 (cell viability EC50s) [2],EC50 [2],potency relative to KG5 (cell viability EC50s) [3],EC50 [3],Compound,cell viability [1],cell viability [2],cell viability [3],cell proliferation (A549 cells),arrest at pro-metaphase (confocal microscopy) (XPA-1 cells),CRAF localization to the mitotic spindle (CRAF)
more potent than KG5,approach picomolar (pM) EC50s,more potent than KG5,approach picomolar (pM) EC50s,more potent than KG5,approach picomolar (pM) EC50s,"CSc1nc(N)cc(Oc2ccc(-c3nnc(Nc4cc(C)ccc4C)[nH]3)cc2)n1 [H3-3, 6-(4-{5-[(2,5-dimethylphenyl)amino]-4H-1,2,4-triazol-3-yl}phenoxy)-2-(methylsulfanyl)pyrimidin-4-amine]",decrease cell viability,decrease cell viability,decrease cell viability,,,
more potent than KG5,approach picomolar (pM) EC50s,more potent than KG5,approach picomolar (pM) EC50s,more potent than KG5,approach picomolar (pM) EC50s,"CSc1nc(N)cc(Oc2ccc(-c3nnc(Nc4cc(C)cc(C)c4)[nH]3)cc2)n1 [H3-7, 6-(4-{5-[(3,5-dimethylphenyl)amino]-4H-1,2,4-triazol-3-yl}phenoxy)-2-(methylsulfanyl)pyrimidin-4-amine]",decrease cell viability,decrease cell viability,decrease cell viability,,,
,,,,more potent than KG5,approach picomolar (pM) EC50s,"CSc1nc(N)cc(Oc2ccc(-c3nnc(Nc4ccc(C)c(C)c4)[nH]3)cc2)n1 [H3-9, 6-(4-{5-[(3,4-dimethylphenyl)amino]-4H-1,2,4-triazol-3-yl}phenoxy)-2-(methylsulfanyl)pyrimidin-4-amine]",,,decrease cell viability,,,
,,,,more potent than KG5,approach picomolar (pM) EC50s,"CSc1nc(N)cc(Oc2ccc(-c3nnc(Nc4cccc(C)c4C)[nH]3)cc2)n1 [H3-11, 6-(4-{5-[(2,3-dimethylphenyl)amino]-4H-1,2,4-triazol-3-yl}phenoxy)-2-(methylsulfanyl)pyrimidin-4-amine]",,,decrease cell viability,,,
,,,,more potent than KG5,approach picomolar (pM) EC50s,"CCOc1nc(N)cc(Oc2ccc(-c3nnc(Nc4cccc(C(F)(F)F)c4)[nH]3)cc2)n1 [K1-72, 2-ethoxy-6-[4-(5-{[3-(trifluoromethyl)phenyl]amino}-4H-1,2,4-triazol-3-yl)phenoxy]pyrimidin-4-amine]",,,decrease cell viability,,,
